These results are taken from ChEMBL document CHEMBL4340507, “Identification of an indol-based multi-target kinase inhibitor through phenotype screening and target fishing using inverse virtual screening approach” (Eur J Med Chem, 2019).

Activity calls are given as the source filed them. The calls are words filed in the database; no cut-off is given here.

As usually defined, the IC50 is the midpoint of a concentration-inhibition curve.

The subject of data set [1] is IEC-6. As to the kind of experiment: Cytotoxicity against rat IEC-6 cells assessed as reduction in cell viability measured after 24 to 72 hrs by MTT assay. It is filed as cell-based. The note with it: for Activity: rat, iec-6. On the technique in general: Tetrazolium dyes change colour on reduction, which living cells bring about.
Another data set deals with PC-3. Briefly: Antiproliferative activity against human PC3 cells assessed as decrease in cell viability measured after 72 hrs by MTT assay. The note with it: PC-3, 72 h. It counts as functional, cell-based.
In another data set the test system is Jurkat. Briefly: Antiproliferative activity against human Jurkat T cells assessed as decrease in cell viability measured after 24 to 72 hrs by MTT assay. It is filed as functional, cell-based.
The test system of data set [2] is HeLa. Briefly: Antiproliferative activity against human HeLa cells assessed as decrease in cell viability measured after 72 hrs by MTT assay. It is filed as functional, cell-based.
A further data set relates to MCF7. Briefly: Antiproliferative activity against human MCF7 cells assessed as decrease in cell viability measured after 72 hrs by MTT assay. It counts as functional, cell-based. The note with it: MCF7, 72 h.
Data set [3] deals with HeLa. As to the kind of experiment: Induction of ROS generation in human HeLa cells at 0.1 to 0.6 uM measured after 24 hrs by H2DC-DA probe-based FACS analysis. It is filed as functional, cell-based. Background: Flow cytometry measures light scatter and fluorescence of single cells or particles in a stream.
For data set [4], the system named is IEC-6. As to the kind of experiment: Cell cycle arrest in rat IEC-6 cells assessed as accumulation at G0/G1-phase at 0.1 to 0.6 uM after 24 hrs by propidium iodide staining-based FACS analysis. The note with it: iec-6, 24 h. It counts as ADME.
Data set [5] relates to IEC-6. As to the kind of experiment: Cell cycle arrest in rat IEC-6 cells assessed as decrease in accumulation at G2-phase at 0.1 to 0.6 uM after 24 hrs by propidium iodide staining-based FACS analysis. It counts as ADME. The note with it: iec-6, 24 h.
Data set [6] deals with HeLa. Briefly: Cell cycle arrest in human HeLa cells assessed as decrease in accumulation at G2-phase at 0.1 to 0.6 uM after 24 hrs by propidium iodide staining-based FACS analysis. It counts as functional.
Data set [7] deals with IEC-6. Briefly: Down regulation of ERK expression in rat IEC-6 cells at 0.6 uM after 24 hrs by FACS analysis. It counts as ADME, cell-based. The note with it: iec-6, 24 h.
Data set [8] relates to IEC-6. Briefly: Cytotoxicity against rat IEC-6 cells assessed as reduction in cell viability at 0.1 to 0.6 uM measured after 24 to 72 hrs by MTT assay. The note with it: iec-6, 0.6 µM. It counts as cell-based.
Data set [9] deals with IEC-6. As to the kind of experiment: Cell cycle arrest in rat IEC-6 cells assessed as increase in accumulation at S phase at 0.1 to 0.6 uM after 24 hrs by propidium iodide staining based FACS analysis. The note with it: iec-6, 24 h. It is filed as ADME.
For data set [10], the system named is IEC-6. Briefly: Induction of apoptosis in rat IEC-6 cells assessed as increase in hypodiploid nuclei at 0.1 to 0.6 uM measured after 24 hrs by propidium iodide staining-based FACS analysis. It is filed as cell-based. The note with it: iec-6, 24 h.
In data set [11] the test system is HeLa. Briefly: Inhibition of ERK phosphorylation in human HeLa cells at 0.6 uM after 24 hrs by FACS analysis. It is filed as cell-based.
The subject of data set [12] is HeLa. Briefly: Cell cycle arrest in human HeLa cells assessed as accumulation at G0/G1-phase at 0.1 to 0.6 uM after 24 hrs by propidium iodide staining-based FACS analysis. It counts as functional.
The test system of data set [13] is IEC-6. As to the kind of experiment: Induction of apoptosis in rat IEC-6 cells assessed as effect on PARP level at 0.1 to 0.6 uM after 24 hrs by FACS analysis. It counts as cell-based. The note with it: iec-6, 24 h.
Data set [14] has as its system IEC-6. As to the kind of experiment: Induction of ROS generation in rat IEC-6 cells at 0.1 to 0.6 uM measured after 24 hrs by H2DCF-DA staining-based FACS analysis. It is filed as cell-based. The note with it: iec-6, 24 h.
A short description of data set [15]: Inhibition of ERK phosphorylation in rat IEC-6 cells at 0.6 uM after 24 hrs by FACS analysis. The note with it: iec-6, 24 h. It counts as cell-based.
Data set [16] has as its system HeLa. As to the kind of experiment: Induction of apoptosis in human HeLa cells assessed as increase in hypodiploid nuclei at 0.3 to 0.6 uM measured after 24 hrs by propidium iodide staining-based FACS analysis. It is filed as functional, cell-based.
For data set [17], the system named is IEC-6. Briefly: Induction of apoptosis in rat IEC-6 cells assessed as increase in caspase 3 level at 0.1 to 0.6 uM after 24 hrs by FACS analysis. The note with it: iec-6, 24 h. It is filed as cell-based.
Data set [18] has as its system HeLa. As to the kind of experiment: Induction of apoptosis in human HeLa cells assessed as increase in caspase 3 level at 0.1 to 0.6 uM after 24 hrs by FACS analysis. It is filed as functional, cell-based.
Data set [19] has as its system HeLa. Briefly: Down regulation of ERK expression in human HeLa cells at 0.1 to 0.6 uM after 24 hrs by FACS analysis. It is filed as functional, cell-based.
The subject of data set [20] is HeLa. Briefly: Induction of apoptosis in human HeLa cells assessed as effect on PARP level at 0.1 to 0.6 uM after 24 hrs by FACS analysis. It is filed as functional, cell-based.

In the case of `CCCn1cc(CNCCc2ccc(-c3ccccc3)cc2)c2cc(CNc3ccc(F)cc3)ccc21`, the Activity entry in the data set on IEC-6 [1] was “Toxic”. The IC50 with PC-3 is 5.41 µM; with Jurkat it was 6.21 µM; with HeLa [2], 7.23 µM; in the data set with MCF7 it was 1.26 µM.

`CN(Cc1ccc(-c2ccccc2)cc1)Cc1cn(C)c2ccc(CNc3ccc(F)cc3)cc12`: the IC50 was 84.3 µM in the data set on PC-3, 34.4 µM in the data set on Jurkat, 8.18 µM in the data set on HeLa [2] and 20.2 µM with MCF7.

With `Cn1cc(CNCCc2ccc(-c3ccccc3)cc2)c2cc(CNc3ccc(F)cc3)ccc21`, the IC50 stood at 2.08 µM with PC-3, 72 µM with Jurkat, 14.7 µM in the data set with HeLa [2] and 76.4 µM in the data set with MCF7.

For `CN(Cc1ccc(-c2ccccc2)cc1)Cc1cn(C)c2ccc(C(=O)Nc3ccc(F)cc3)cc12`, the IC50 in the data set on PC-3 is above 100 µM; in the data set with Jurkat it was above 100 µM; in the data set on HeLa [2], 23.6 µM; in the data set on MCF7, 54.4 µM.

Consider `Cn1cc(CN2CCN(Cc3ccc(-c4ccccc4)cc3)CC2)c2cc(C(=O)Nc3ccc(F)cc3)ccc21`, for which the IC50 with PC-3 is 37.5 µM; in the data set with Jurkat, above 100 µM; in the data set on HeLa [2], 39.7 µM; in the data set on MCF7, 63.9 µM.

As to `CN(CCc1ccc(-c2ccccc2)cc1)Cc1cn(C)c2ccc(C(=O)N3CCCCC3)cc12`, the Activity result with IEC-6 [1] is given as “Non-Toxic”. For the same molecule, the IC50 is 52.2 µM in the data set with PC-3, 60.4 µM with Jurkat, 73.2 µM in the data set on HeLa [2] and 3.04 µM with MCF7.

As to `CCNC(=O)c1ccc2c(c1)c(CN(C)CCc1ccc(-c3ccccc3)cc1)cn2C`, the IC50 was 87.5 µM in the data set with PC-3, 79.2 µM with Jurkat, above 100 µM in the data set with HeLa [2] and 12.2 µM in the data set on MCF7.

In the case of `COc1cc(CN(C)Cc2cn(C)c3ccc(C(=O)Nc4ccc(F)cc4)cc23)cc(OC)c1OC`, the IC50 in the data set on PC-3 turned out to be 6.45 µM; with Jurkat it was 42.1 µM; with HeLa [2] it was 4.21 µM; in the data set on MCF7, 13.2 µM.

Turning to `CN(Cc1ccc(Oc2ccccc2)cc1)Cc1cn(C)c2ccc(CNc3ccc(F)cc3)cc12`, the IC50 in the data set on PC-3 is 56 µM; with Jurkat, 35.6 µM; with HeLa [2], 9.98 µM; with MCF7, 37 µM.

In the case of `O=C(Nc1ccc(F)cc1)c1ccc2c(ccn2Cc2ccc(-c3ccccc3)cc2)c1`, the IC50 is 8.36 µM in the data set with PC-3, above 100 µM in the data set with Jurkat, 67.6 µM with HeLa [2] and 10.8 µM in the data set with MCF7.

As for `N#Cc1c(Oc2ccc(F)c(NC(=O)Cc3cccc(C(F)(F)F)c3)c2)ccc2nc(NC(=O)C3CC3)sc12`, the outcome with HeLa [3], in the data set with HeLa [6], with HeLa [12], with HeLa [16], in the data set on HeLa [18] and in the data set with HeLa [19] was Active. The Activity entry with IEC-6 [4], in the data set on IEC-6 [5], with IEC-6 [7], with IEC-6 [8], in the data set on IEC-6 [9] and in the data set with IEC-6 [10] was “Toxic” throughout. The Activity result with IEC-6 [13] is on record as “Non-Toxic”; in the data set with IEC-6 [14] it was “Toxic”; in the data set with IEC-6 [17], “Toxic”. In the data set with HeLa [11], the inhibition result is “Active”. Besides, the “inhibition (INH)” value in [15] is recorded as “Active”. Further, the outcome in the data set on HeLa [20] was inactive.

As to `CC(=O)N(CCc1ccc(-c2ccccc2)cc1)Cc1cn(C)c2ccc(C(=O)Nc3ccc(F)cc3)cc12`, the IC50 in the data set on PC-3 was above 100 µM; with Jurkat it was above 100 µM; with HeLa [2] it was above 100 µM; in the data set on MCF7, 82.6 µM.

For the molecule `CN(CCc1ccc(-c2ccccc2)cc1)Cc1cn(C)c2ccc(CNc3ccc(F)cc3)cc12`, the IC50 is 72.7 µM in the data set on PC-3, 26.5 µM in the data set with Jurkat, 2.92 µM with HeLa [2] and 2.15 µM with MCF7.

Turning to `CN1CCN(Cc2cn(C)c3ccc(C(=O)Nc4ccc(F)cc4)cc23)CC1`, the IC50 in the data set with PC-3 is 89.2 µM; in the data set with Jurkat, above 100 µM; in the data set on HeLa [2] it was 24.8 µM; in the data set on MCF7, 24.7 µM.

`CN(CCc1ccccc1)Cc1cn(C)c2ccc(C(=O)Nc3ccc(F)cc3)cc12`: the concentration for half-maximal inhibition (IC50) in the data set with PC-3 was 47.7 µM; in the data set with Jurkat, above 100 µM; with HeLa [2], 19.6 µM; in the data set with MCF7, 14.7 µM.

For `CN(CCc1ccc(Oc2ccccc2)cc1)Cc1cn(C)c2ccc(C(=O)Nc3ccc(F)cc3)cc12`, the IC50 in the data set on PC-3 was 30.8 µM; in the data set with Jurkat it was 51.8 µM; in the data set with HeLa [2], 16.6 µM; with MCF7, 20.7 µM.

`Cc1ccc(NC(=O)c2ccc3c(c2)c(CN(C)CCc2ccc(-c4ccccc4)cc2)cn3C)cc1`: the Activity result in the data set on IEC-6 [1] is “Non-Toxic”. Further, the 50% inhibitory concentration (IC50) with PC-3 was 50.3 µM; with Jurkat, 68 µM; in the data set on HeLa [2], 69.8 µM; in the data set on MCF7 it was 3.04 µM.

As for `COc1cccc2c1C(=O)c1c(O)c3c(c(O)c1C2=O)C[C@@](O)(C(=O)CO)C[C@@H]3O[C@H]1C[C@H](N)[C@H](O)[C@H](C)O1` [DOXORUBICIN], the IC50 in the data set on PC-3 is 1.07 µM; with Jurkat, 2.35 µM; in the data set with HeLa [2] it was 1.44 µM; in the data set on MCF7 it was 14 µM.

In the case of `CC(=O)N(CCc1ccc(-c2ccccc2)cc1)Cc1cn(C)c2ccc(C(=O)Nc3ccc(C)cc3)cc12`, the IC50 in the data set with PC-3 was above 100 µM; in the data set with Jurkat it was above 100 µM; with HeLa [2], above 100 µM; in the data set with MCF7 it was 12.8 µM.

On to `Cn1cc(CNCCc2ccc(-c3ccccc3)cc2)c2cc(C(=O)Nc3ccc(F)cc3)ccc21`, for which the IC50 was 45.3 µM in the data set with PC-3, 83.8 µM in the data set with Jurkat, 24.3 µM with HeLa [2] and 7.07 µM with MCF7.

For the molecule `CN(Cc1cccc2ccccc12)Cc1cn(C)c2ccc(CNc3ccc(F)cc3)cc12`, the IC50 with IEC-6 [1] (Rattus norvegicus, IEC-6) worked out at 0.59 µM; with PC-3, 9.41 µM; with Jurkat it was 3.68 µM; in the data set on HeLa [2] it was 0.95 µM; with MCF7, 4.55 µM.
